pIC50: −log10 of the molar value.
What follows are compounds tested on TNFα (assay: In vitro assay: TNFα ELISA of supernatants of LPS-stimulated human PBMC). Details: Homo sapiens, PBMC, human PBMC pretreated with drug 60 min, stimulated with LPS (E. coli O55:B5) 100 ng/mL, overnight culture, TNFα in supernatant by ELISA; read-out: 50% Inhibition of TNFα level (IC50).
Type: cell-based
Procedure: Enzyme-linked immunosorbent assays (ELISA) for TNFα can be performed in a conventional manner (Blood, 75, 40-47 (1990)). Human PBMC are isolated from heparinized venous blood obtained from healthy volunteers by Ficoll-Hypaque density centrifugation. The cells are cultured in RPMI1640 medium supplemented with 5% heat-inactivated fetal calf serum and antibiotics. PBMC (5×10E5 cells/mL) in 0.2 mL aliquot are pretreated with drugs in DMSO for 60 min at 37° C. in 96 well round-bottomed tissue culture plates. Thereafter, PBMC in the presence or absence of compound are stimulated with 1 mg/mL LPS from E. coli O55:B5 at a final concentration of 100 ng/mL. After overnight culture, the supernatants are harvested and assayed immediately for TNFα levels from each well. The concentration of TNFα in the supernatant is determined by human TNFα ELISA Kit according to the manufacture's directions.
Active compounds are characterized by the concentration of the compound that caused 50% inhibition of TNFα level (IC50).

Row | SMILES | pIC50
1 | Cc1c(Cc2ccncc2)c(=O)oc2cc(OC(=O)N(C)C)c(Cl)cc12 [Example 11, dimethyl carbamic acid 2-oxo-2H-3-(p-pyridinylmethyl)-4-methyl-6-chloro-1-benzopyran-7-yl ester] | 6.89
2 | Cc1c(Cc2ccccc2)c(=O)oc2cc(Oc3ncccn3)ccc12 [Example 15, 2-oxo-2H-3-benzyl-4-methyl-7-(pyrimidin-2-yloxyl)-1-benzopyrane] | 5.03
3 | Cc1c(Cc2ccccc2)c(=O)oc2cc(OC(=O)N(C)C)cc(F)c12 [Example 10, dimethyl carbamic acid 2-oxo-2H-3-benzyl-4-methyl-5-fluoro-1-benzopyran-7-yl ester] | > 6.22
4 | Cc1c(Cc2ccccc2)c(=O)oc2cc(OC(=O)N(C)C)c(Cl)cc12 [Example 2, dimethyl carbamic acid 2-oxo-2H-3-benzyl-4-methyl-6-chloro-1-benzopyran-7-yl ester] | 7.05
5 | Cc1c(Cc2ccccc2)c(=O)oc2cc(SC(=O)N(C)C)ccc12 [Example 13, dimethyl thiocarbamic acid S-2-oxo-2H-3-benzyl-4-methyl-1-benzopyran-7-yl ester] | 6.17
6 | CN(C)C(=O)Oc1ccc2c(CC(O)c3ccccn3)c(Cc3ccccc3)c(=O)oc2c1 (centres unmarked) [Example 5, dimethyl carbamic acid 2-oxo-2H-3-benzyl-4-(2-(2-pyridyl)-2-hydroxylethyl)-1-benzopyran-7-yl ester] | 4.71
7 | Cc1c(Cc2ccccc2)c(=O)oc2cc(OC(=O)N(C)C)c(C#N)cc12 [Example 9, dimethyl carbamic acid 2-oxo-2H-3-benzyl-4-methyl-6-cyano-1-benzopyran-7-yl ester] | 6.07
8 | C=Cc1ccc2c(C)c(Cc3ccccc3)c(=O)oc2c1 [Example 23, 2-oxo-3-benzyl-4-methyl-7-vinyl-2H-1-benzopyrane] | 4.99
9 | CCOC(=O)CC(=O)Nc1cccc(Cc2c(C)c3ccc(Oc4ncccn4)cc3oc2=O)c1 [Example 19, 2-oxo-2H-3-(m-ethoxycarbonyl-acetylaminobenzyl)-4-methyl-7-(pyrimidin-2-yloxyl)-1-benzopyrane] | > 6.22
10 | Cc1c(Cc2ccccc2)c(=O)oc2cc(Cn3ccnc3N)ccc12 [Example 25, 2-oxo-3-benzyl-4-methyl-7-(2-aminoimidazol-1-yl-methyl)-1H-benzopyrane] | 4.93

Same assay, conditions: human PBMC pretreated with drug 60 min, stimulated with LPS (E. coli O55:B5) 100 ng/mL, overnight culture, TNFα in supernatant by ELISA; listed as 14-4; read-out: 50% Inhibition of TNFα level (IC50)

Row | SMILES | pIC50
11 | Cc1c(Cc2ccccc2)c(=O)oc2cc(OC(=O)N(C)C)cc(F)c12 [Example 10, dimethyl carbamic acid 2-oxo-2H-3-benzyl-4-methyl-5-fluoro-1-benzopyran-7-yl ester] | 6.36

Same assay, conditions: human PBMC pretreated with drug 60 min, stimulated with LPS (E. coli O55:B5) 100 ng/mL, overnight culture, TNFα in supernatant by ELISA; read-out: 50% Inhibition of TNFα level (IC50)

Row | pIC50 | SMILES
12 | 5.38 | CCc1c(Cc2cccc(N)c2)c(=O)oc2cc(Oc3nccs3)ccc12 [Example 22-7]
13 | 5.01 | Cc1c(Cc2cccc(NC(=O)CNC(=O)OCc3ccccc3)c2)c(=O)oc2cc(Oc3ncccn3)c(Cl)cc12 [Example 20-31]
14 | 5.20 | Cc1c(Cc2ccccc2)c(=O)oc2cc(C=O)ccc12 [Example 26-1]
15 | 4.94 | Cc1c(Cc2cccc(NC(=O)CCNC(=O)OCc3ccccc3)c2)c(=O)oc2cc(Oc3ncccn3)c(Cl)cc12 [Example 20-32]
16 | 5.29 | Cc1c(Cc2cccc(N(C)C)c2)c(=O)oc2cc(Oc3ncccn3)c(Cl)cc12 [Example 20-27]
17 | 6.52 | CCS(=O)(=O)Nc1cccc(Cc2c(C)c3cc(Cl)c(Oc4ncccn4)cc3oc2=O)c1 [Example 20-44]
18 | 5.14 | Cc1c(Cc2cccc(N)c2)c(=O)oc2cc(Oc3ncccn3)ccc12 [Example 20-19]
19 | 5.36 | CCc1c(Cc2cccc(NC(C)=O)c2)c(=O)oc2cc(Oc3ncccn3)cc(F)c12 [Example 20-60]
20 | 5.49 | CCc1c(Cc2cccc([N+](=O)[O-])c2)c(=O)oc2cc(Oc3nccs3)ccc12 [Example 22-11]
21 | 5.11 | CCc1c(Cc2cccc(N)c2)c(=O)oc2cc(Oc3ncccn3)c(Cl)cc12 [Example 20-56]
22 | 5.24 | CC(=O)NCC(=O)Nc1cccc(Cc2c(C)c3cc(Cl)c(Oc4ncccn4)cc3oc2=O)c1 [Example 20-30]
23 | 5.05 | Cc1c(Cc2ccccc2)c(=O)oc2cc(C(C)(F)F)ccc12 [Example 26-11]
24 | 5.18 | Cc1c(Cc2cccc([N+](=O)[O-])c2)c(=O)oc2cc(Oc3nccs3)ccc12 [Example 22-2]
25 | 5.07 | Cc1c(Cc2ccccc2)c(=O)oc2cc(Cn3ccnc3N)c(Cl)cc12 [Example 26-16]
26 | 4.93 | CC(=O)Nc1cccc(Cc2c(C)c3c(Cl)cc(Oc4ncccn4)cc3oc2=O)c1 [Example 20-37]
27 | 5.14 | Cc1ccc(S(=O)(=O)Nc2cccc(Cc3c(C)c4cc(Cl)c(Oc5ncccn5)cc4oc3=O)c2)cc1 [Example 20-45]
28 | 6.02 | CCCS(=O)(=O)Nc1cccc(Cc2c(C)c3cc(Cl)c(Oc4ncccn4)cc3oc2=O)c1 [Example 20-46]
29 | 4.98 | Cc1c(Cc2ccncc2)c(=O)oc2cc(Oc3ncccn3)ccc12 [Example 20-10]
30 | 5.12 | Cc1c(Cc2ccncc2)c(=O)oc2cc(Oc3ncccn3)c(Cl)cc12 [Example 20-13]
31 | 6.51 | Cc1c(Cc2cccc(NS(=O)(=O)C(C)C)c2)c(=O)oc2cc(Oc3ncccn3)c(Cl)cc12 [Example 20-47]
32 | > 6.22 | CCOC(=O)CC(=O)Nc1cccc(Cc2c(C)c3c(F)cc(Oc4ncccn4)cc3oc2=O)c1 [Example 20-40]
33 | 5.35 | CCc1c(Cc2ccccc2)c(=O)oc2cc(Oc3ncccn3)c(Cl)cc12 [Example 20-50]
34 | 4.92 | CCc1c(Cc2cccc([N+](=O)[O-])c2)c(=O)oc2cc(Oc3ncccn3)cc(F)c12 [Example 20-58]
35 | 4.86 | Cc1c(Cc2ccccc2)c(=O)oc2cc(Cn3ccnc3N)ccc12 [Example 25, 2-oxo-3-benzyl-4-methyl-7-(2-aminoimidazol-1-yl-methyl)-1H-benzopyrane]
36 | 4.97 | Cc1c(Cc2cccc(NC(=O)CC(=O)O)c2)c(=O)oc2cc(Oc3ncccn3)c(Cl)cc12 [Example 20-34]
37 | 5.06 | Cc1c(Cc2ccccc2)c(=O)oc2cc(Oc3ncccn3)c(I)cc12 [Example 20-5]

Continued, compound first:

Row | SMILES | pIC50
38 | Cc1c(Cc2cccnc2)c(=O)oc2c(C)c(OC(=O)N(C)C)ccc12 [Example 14-33] | 5.08
39 | CCCc1c(Cc2ccccc2)c(=O)oc2cc(OC(=O)N(C)C)c(Cl)cc12 [Example 14-83] | 6.11
40 | COc1ccccc1Cc1c(C)c2ccc(OC(=O)N(C)C)cc2oc1=O [Example 14-44] | 5.12
41 | CCOC(=O)CNC(=O)Nc1cccc(Cc2c(C)c3ccc(OC(=O)N(C)C)cc3oc2=O)c1 [Example 14-71] | 5.62
42 | Cc1c(Cc2ccc(C(C)C)cc2)c(=O)oc2cc(OC(=O)N(C)C)ccc12 [Example 14-52] | 4.94
43 | Cc1c(Cc2ccccc2[N+](=O)[O-])c(=O)oc2cc(OC(=O)N(C)C)c(Cl)cc12 [Example 14-21] | 5.52
44 | Cc1c(Cc2cccc([N+](=O)[O-])c2)c(=O)oc2cc(OC(=O)N(C)C)cc(F)c12 [Example 14-5] | 5.43
45 | CN(C)C(=O)Oc1ccc2c(-c3ccccc3)c(Cc3ccc(F)cc3)c(=O)oc2c1 [Example 14-84] | 5.78
46 | Cc1c(Cc2ccccc2)c(=O)oc2cc(OC(=O)N(C)C)c(I)cc12 [Example 14-12] | 7.22
47 | Cc1c(Cc2cccc(N)c2)c(=O)oc2cc(OC(=O)N(C)C)ccc12 [Example 14-65] | 5.57
48 | Cc1c(Cc2cccnc2)c(=O)oc2cc(OC(=O)N(C)C)c(Cl)cc12 [Example 14-35] | 6.35
49 | CCNC(=O)Nc1cccc(Cc2c(C)c3ccc(OC(=O)N(C)C)cc3oc2=O)c1 [Example 14-69] | 5.62
50 | Cc1cc2c(C)c(Cc3ccccc3)c(=O)oc2cc1OC(=O)N(C)C [Example 14-14] | 6.40
51 | Cc1c(Cc2ccccc2)c(=O)oc2cc(OC(=O)N(C)C)c(C=O)cc12 [Example 14-16] | 5.02
52 | CCc1c(Cc2ccncc2)c(=O)oc2cc(OC(=O)N(C)C)c(Cl)cc12 [Example 14-81] | 6.47
53 | CC(=O)Nc1cccc(Cc2c(C)c3c(F)cc(OC(=O)N(C)C)cc3oc2=O)c1 [Example 14-7] | 6.00
54 | CC(=O)Nc1cccc(Cc2c(C)c3ccc(OC(=O)N(C)C)cc3oc2=O)c1 [Example 14-60] | 5.96
55 | CCc1c(Cc2cccc(NC(C)=O)c2)c(=O)oc2cc(OC(=O)N(C)C)ccc12 [Example 14-79] | 5.80
56 | CCc1c(Cc2ccncc2)c(=O)oc2cc(OC(=O)N(C)C)ccc12 [Example 14-80] | 5.62
57 | COC(=O)c1cccc(Cc2c(C)c3ccc(OC(=O)N(C)C)cc3oc2=O)c1 [Example 14-67] | 5.77
58 | Cc1c(Cc2cccnc2)c(=O)oc2cc(OC(=O)N(C)C)ccc12 [Example 14-31] | 5.66
59 | Cc1c(Cc2ccccn2)c(=O)oc2cc(OC(=O)N(C)C)ccc12 [Example 14-30] | 5.19
60 | CC(=O)Nc1ccc(Cc2c(C)c3ccc(OC(=O)N(C)C)cc3oc2=O)cc1 [Example 14-61] | 5.24
61 | CCOC(=O)CC(=O)Nc1cccc(Cc2c(C)c3cc(Cl)c(OC(=O)N(C)C)cc3oc2=O)c1 [Example 14-26] | 7.30
62 | CCc1c(Cc2cccc(N)c2)c(=O)oc2cc(OC(=O)N(C)C)ccc12 [Example 14-78] | 5.89
63 | Cc1c(Cc2cccc([N+](=O)[O-])c2)c(=O)oc2cc(OC(=O)N(C)C)ccc12 [Example 14-56] | 5.35
64 | Cc1c(Cc2ccccc2)c(=O)oc2cc(OC(=O)N(C)C)c(C#C[Si](C)(C)C)cc12 [Example 14-18] | 5.41
65 | Cc1c(Cc2ccccc2)c(=O)oc2cc(OC(=O)N(C)C)c([N+](=O)[O-])cc12 [Example 14-17] | 6.92

— patent US7994318B2, “Coumarin derivatives useful as TNFα inhibitors” (Chugai Seiyaku Kabushiki Kaisha, priority 2000, dated 2011)
